Data on four molecules can be found in US8993556B2, “Resorcinol derivatives as HSP90 inhibitors” (priority 2009, dated 2015).

Like-named read-outs stand apart in the source and are kept apart here.

Data set [1] concerns Her2 protein levels in BT474 breast cancer cells. Put plainly: Her2 Degradation Assay. Type of data set: cell-based. As to conditions: Homo sapiens. On the procedure:
The potencies of the compounds of the present invention were evaluated by measuring the Her2 degradation as a marker for HSP90 inhibition.
HSP90 is a key component of a chaperone machinery that catalyzes the folding and quality control of several proteins. Its inhibition impairs the capacity to fold or stabilize its client proteins, leading to the proteosomal dependent degradation of these unfolded proteins. […] Cellular activity of HSP90 inhibitors was assessed by measuring the induced loss of Her2 protein levels in BT474 breast cancer cells (ATCC #HTB-20). Cellular Her2 levels were measured by immunocytochemistry, and quantified using an ArrayScan vTi instrument (Cellomics Thermo Scientific).
Cellular activity of HSP90 inhibitors was assessed by measuring the induced loss of Her2 protein levels in BT474 breast cancer cells (ATCC #HTB-20). Cellular Her2 levels were measured by immunocytochemistry, and quantified using an ArrayScan vTi instrument (Cellomics Thermo Scientific).
Studies were performed as follows: 5000 cells/well are seeded in 96 well plates (Perkin Elmer) in DMEM/5% FCS and incubated for 48 hours at 37° C., 5% CO2.
Medium is then replaced with fresh medium containing test compounds at the required concentration. Concentration curves are prepared in DMEM/10% FCS from compound stocks in DMSO, and final DMSO concentration is 0.1% (v/v). Duplicate wells for each concentration point are prepared, with a typical highest compound concentration of 30 μM. […] Plates are incubated for 20 minutes at room temperature, then wells are washed in PBS and cells permiabilised by incubating with PBS containing 0.3% Triton X-100 for 15 minutes at room temperature. Non-specific binding sites are blocked by incubating wells for 1 hour in PBS containing 3% (w/v) BSA. Wells are then incubated for 1 hour at room temperature in PBS containing anti Her2 mouse monoclonal (Anti-c-ErbB2/c-Neu, Mouse mAb 3B5, Calbiochem Cat N^o OP15) diluted 1:100 in 1% (w/v) BSA. […] After washing a further 3 times in PBS, cellular Her2 immunoreactivity is assessed using the ArrayScan vTi instrument, with a Zeiss 10× 0.5 N.A. objective, and applying the Cytotoxity.V3 algorithm (Cellomics/Thermo Fisher) with a XF100 filter. At least 10 fields, corresponding to at least 900 cells, are read for each well.
IC50 is the response; IC50 starts at Bottom and goes to Top with a sigmoid shape. In Vitro Cell Proliferation Assay

Data set [2] deals with A2780 human ovarian cells. Put plainly: In Vitro Cell Proliferation Assay. The class given is cell-based. How it is done:
The cells were incubated at 37° C. and 5% CO2 and after 72 hours the plates were processed using CellTiter-Glo assay (Promega) following the manufacturer's instruction.
CellTiter-Glo is a homogenous method based on the quantification of the ATP present, an indicator of metabolically active cells. ATP is quantified using a system based on luciferase and D-luciferin resulting into light generation. The luminescent signal is proportional to the number of cells present in culture.
Briefly 25 μL/well reagent solution are added to each wells and after 5 minutes shacking microplates are red by a luminometer. The luminescent signal is proportional to the number of cells present in culture.

In a further data set the target is His-HSP90 N-term domain. The data set can be described thus: Determination of KD Via Biacore. Type of data set: binding. The conditions noted are these: Biacore T100. How it is done:
The evaluation of the binding affinity (KD) of the compounds of formula (I) to the HSP90 protein was done using Biacore T100.
His-HSP90 N-term domain was immobilized by capture of his tag by the Ab previously covalently bound to the chip (CM5) surface.
The compounds were analyzed using the following running buffer: 20 mM Tris/HCl pH 7.6, 150 mM KCl, 5 mM MgCl2, 0.05% P20 and 1% DMSO. The flow rate was 50 ul/min with and association time of 60 seconds.
The cpds were diluted in running buffer from 100× stock solution; the different conc injected were obtained from a sequential dilution in order to have the same DMSO conc. in each sample and avoid any solvent correction.

For data set [3], the system named is human ovarian carcinoma cell line A2780 transplanted in immunodeficient mice. Put plainly: In Vivo Antitumor Efficacy. The arrangement: species or system mouse. The conditions noted are these: for TGI: A2780 in athymic mice. How it is done:
Antitumor activity of HSP90 inhibitors was assessed in vivo using the human ovarian carcinoma cell line A2780 transplanted in immunodeficient mice.
Balb Nu/Nu, male mice, (athymic mice) from Harlan, Italy, were maintained in cages with paper filter covers, food and bedding sterilized and water acidified. A2780 tumors were maintained in vivo by serial transplantation and, at the time of efficacy experiments, implanted subcutaneously in athymic mice. The treatments started 8 days later when the tumors were palpable. HSP90 inhibitors were prepared immediately before use and administered intravenously in a volume of 10 ml/kg at different doses.
Tumor growth was assessed by caliper. The two diameters were recorded, and the tumor weight was calculated according to the following formula: length (mm)×width^2 (mm)/2. The effect of the antitumor treatment was determined as tumor growth inhibition (TGI %) of treated group respect to vehicle treated controls.

A short description of the next data set: in vivo. As to conditions: Mouse Balb Nu/Nu, single. On the procedure:
Calibration Standards and Quality Controls were prepared spiking blank mouse plasma with appropriate working solutions.
Sample plasma proteins were precipitated by adding 160 μL of acetonitrile/methanol 90/10 to 20 μL of mouse plasma in a 96 well plate.
After heat sealing and mixing for 3 minutes, the plate was centrifuged for 15 minutes at 4000 rpm.
The supernatant was considered as final extract and injected onto the LC-MS-MS system.
• UPLC system: Waters Acquity BSM • Mobile phase A: 95:5-5 mM Ammonium Formate pH3.5: Acetonitrile • Mobile phase B: 5:95-5 mM Ammonium Formate pH3.5: Acetonitrile • Analytical column: BEH C18 50×2.1 1.7 μm • Elution conditions:
• Total Run Time: 2.0 min. • Flow rate: 0.500 mL/min • Approximate retention time: NMS-03308086: 0.67 min. • Column oven temp: 40° C. • Autosampler type: Waters Acquity SM • Injection volume: 3 μL • Injection mode: Partial Loop with Needle Overfill • Autosampler temperature: 5° C. • MS instrument: Waters TQD • Ionisation: ES+ • Capillary: 1.5 kV • Cone: 70 V • Source Temperature: 150° C. • Desolvation Flow and Temp.: 900 L/h-400° C. • Collision Gas Flow: 0.2 mL/min • Collision Energy: 40 • MRM transitions: NMS-03308086: m/z 579.1>m/z 97.0 • Dwell Time: 0.1 seconds • LLOQ: 5.0 ng/mL • ULOQ: 5000 ng/mL • Software used: Mass Lynx 4.1 SCN627

The mark [4] stands for this setting: BT-474, 8 h, read-out: Her2 Degradation IC50 (μM).
[5] abbreviates: Homo sapiens, A2780, 72 h, read-out: A2780 Proliferation IC50 (μM).
The mark [6] stands for this setting: BT-474, BT474 breast cancer cells, 8 hours, read-out: Her2 Degradation IC50.

Regarding `CN(C)c1ccc(Oc2cc(O)cc(O)c2-c2cc(C(=O)NC3CCN(C4CCC5(CC4)OCCCO5)CC3)no2)cc1` [5-{2-[4-(Dimethylamino)phenoxy]-4,6-dihydroxyphenyl}-N-[1-(1,5-dioxaspiro[5.5]undec-9-yl)piperidin-4-yl]isoxazole-3-carboxamide], the IC50 in data set [1] (setting [4]) came to 0.038 µM; in data set [2] (setting [5]), 0.021 µM. Besides, at His-HSP90 N-term domain, the Kd came to 0.079 nM. Also, the TGI in data set [3] (intravenously at 30 mg/Kg daily) stood at 92%.

`CN1CCC(NC(=O)c2cc(-c3c(O)cc(O)cc3Oc3ccc(N(C)C)cc3)on2)CC1` [5-{2-[4-(Dimethylamino)phenoxy]-4,6-dihydroxyphenyl}-N-(1-methylpiperidin-4-yl)isoxazole-3-carboxamide]: the IC50 in data set [1] (setting [6]) was determined as 0.039 µM. Moreover, the TGI in data set [3] (intravenously at 40 mg/Kg daily) was found to be 77%.

In the case of `CN1CCC(NC(=O)c2cc(-c3c(O)cc(O)cc3Oc3ccc([N+](=O)[O-])cc3)on2)CC1` [5-[2,4-dihydroxy-6-(4-nitrophenoxy)phenyl]-N-(1-methylpiperidin-4-yl)isoxazole-3-carboxamide], the IC50 in data set [1] (setting [6]) came to 0.11 µM; in data set [2] (A2780 human ovarian cells, 72 hours, CellTiter-Glo, read-out: A2780 Proliferation IC50), 0.06 µM. Besides, the TGI in data set [3] (30 mg/kg for 10 consecutive days, intravenously) stood at 53%; in data set [3] (60 mg/kg for 10 consecutive days, intravenously), 74%. Moreover, in data set [3] (30 and 60 mg/kg for 10 consecutive days, athymic mice), the signs of toxicities result is recorded as “without signs of toxicities”.

Consider `CN1CCC(NC(=O)c2cc(-c3c(O)cc(O)cc3Oc3ccc(N(C)C)cc3)no2)CC1` [3-{2-[4-(Dimethylamino)phenoxy]-4,6-dihydroxyphenyl}-N-(1-methylpiperidin-4-yl)isoxazole-5-carboxamide], for which the IC50 in data set [1] (setting [4]) stood at 0.008 µM; in data set [2] (setting [5]), 0.03 µM. The molecule also yielded a Kd on His-HSP90 N-term domain of 0.066 nM. For the same molecule, in data set [3] (intravenously at 40 mkg/kg every three days), the TGI was 88%. For the same molecule, the clearance in the data set “in vivo” (10 mg/kg IV bolus, read-out: CL (mL/h/kg) Plasma clearance (converted)) was 3430 mL/h/kg. The half-life in the data set “in vivo” (10 mg/kg IV bolus, read-out: T1/2 (h) Terminal half-life (converted)) was 5.12 h. The Vd in “in vivo” (10 mg/kg IV bolus, read-out: Vdss (mL/kg) Volume of distribution at steady state) stood at 12500 mL/kg. In “in vivo” (10 mg/kg oral vs 10 mg/kg IV, read-out: F % Oral bioavailability), the bioavailability was 25%.
